Measurements: patent US20200305483A1, “SOURNESS ENHANCERS COMPRISING A CYCLOHEXANECARBOXYLIC ACID” (Firmenich SA, priority 2017, published 2020)

How the values were obtained:
Assay type in all cases: in vivo
[1] = Paired comparison study (2-AFC) of sourness, model system comprising malic acid; conditions: 50 ppm in 5% sucrose / 0.05% malic acid, pH 3.1 (±0.02), 95% confidence level
Procedure: A sucrose (5% by weight) and malic acid (0.05% by weight) solution was prepared and used for evaluating the sourness enhancement effect of a cyclohexanecarboxylic acid having the structure: The evaluation consisted of (i) a test solution of 50 ppm of the cyclohexanecarboxylic acid in the sucrose/malic acid solution; and (ii) a control solution comprising the sucrose/malic acid solution only. In a repeat experiment using 41 trained subjects, 41 subjects were asked to select the more sour sample in each pair, in a paired comparison study (2-AFC). The pH of the samples was 3.1 (±0.02). 28 out of 41 subjects found the sample containing compound I at 50 ppm was more sour at a 95% confidence level.

[2] = Paired comparison of sourness, model system comprising tartaric acid; conditions: 50 ppm in 5% sucrose / 0.05% tartaric acid, pH 2.9 (±0.02), 95% confidence level
Procedure: A sucrose (5% by weight) and tartaric acid (0.05% by weight) solution was prepared and used for evaluating the sourness enhancement effect of a cyclohexanecarboxylic acid having the structure: The evaluation consisted of (i) a test solution of 50 ppm of the cyclohexanecarboxylic acid in the sucrose/tartaric acid solution; and (ii) a control solution comprising the sucrose/tartaric acid solution only. 41 subjects were asked to select out more sour sample in each pair. The pH of the samples was 2.9 (±0.02).

[3] = Sensory evaluation of sweet, sour and astringent intensities, model system comprising malic acid
Procedure: A sucrose (5% by weight) and malic acid (0.05% by weight) solution was prepared and used for evaluating the sourness enhancement effect of a cyclohexanecarboxylic acid having the structure: The evaluation consisted of (i) a test solution of 50 ppm of the cyclohexanecarboxylic acid in the sucrose/malic acid solution; and (ii) a control solution comprising the sucrose/malic acid solution only. 27 trained panelists were asked to evaluate the sweet, sour and astringent intensities for each sample on a linear scale from 0 to 10, where 0 corresponded to “no taste” and 10 corresponded to “too strong to taste”.

[4] = Paired comparison of sourness, model system comprising citric and lactic acid; conditions: 50 ppm in 5% sucrose / 0.07% citric acid / 0.09% lactic acid, pH 2.9 (±0.02), 95% confidence level
Procedure: A sucrose (5% by weight), citric acid (0.07% by weight), and lactic acid (0.09% by weight) solution was prepared and used for evaluating the sourness enhancement effect of a cyclohexanecarboxylic acid having the structure: The evaluation consisted of (i) a test solution of 50 ppm of the cyclohexanecarboxylic acid in the sucrose/citric-lactic acid solution; and (ii) a control solution comprising the sucrose/citric-lactic acid solution only. 41 subjects were asked to select out more sour sample in each pair. The pH of the samples was 2.9 (±0.02).

[5] = Sensory evaluation of sweet, sour and astringent intensities, model system comprising citric acid
Procedure: A sucrose (5% by weight), and citric acid (0.05% by weight) solution was prepared and used for evaluating the sourness enhancement effect of a cyclohexanecarboxylic acid having the structure: The evaluation consisted of (i) a test solution of 50 ppm of the cyclohexanecarboxylic acid in the sucrose/citric acid solution; and (ii) a control solution comprising the sucrose/citric acid solution only. 28 trained panelists were asked to evaluate the sweet, sour and astringent intensities for each sample on a linear scale from 0 to 10, where 0 correlated with “no taste” and 10 correlated with “too strong to taste”.

[6] = 50 ppm (by weight) in sucrose/malic acid solution, versus reference sample
[7] = 50 ppm (by weight) in sucrose/citric acid solution, versus reference sample

O=C(/C=C/c1ccc(O)c(O)c1)O[C@@H]1C[C@](O)(C(=O)O)C[C@@H](O)[C@H]1O [compound I]
subjects who found the sample containing the compound more sour [1]: 28 out of 41 subjects
subjects who found that adding the compound increased sourness [2]: 28 out of 41 subjects
enhancement of astringency intensity [3, 6]: 24.0%
enhancement of sourness intensity [3, 6]: 22.5%
sourness intensity (tested sample) ([3]; 50 ppm in 5% sucrose / 0.05% malic acid, 27 trained panelists, linear scale 0 to 10, reference sample 4.0, 95% confidence level): 4.9
astringency intensity (tested sample) ([3]; 50 ppm in 5% sucrose / 0.05% malic acid, 27 trained panelists, scale 0 to 10, reference sample 2.5, 99% confidence level): 3.1
sweet intensity, change versus reference sample ([3]; 50 ppm in 5% sucrose / 0.05% malic acid, pH value also unchanged): Without changing
subjects who found that adding the compound increased sourness [4]: 29 out of 41 subjects
change of astringency intensity [5, 7]: 28.0%
decrease of sweetness intensity [5, 7]: 11.6%
astringency intensity (tested sample) ([5]; 50 ppm in 5% sucrose / 0.05% citric acid, 28 trained panelists, scale 0 to 10, reference sample 2.5): 3.2
sweetness intensity (tested sample) ([5]; 50 ppm in 5% sucrose / 0.05% citric acid, 28 trained panelists, scale 0 to 10, reference sample 4.3, 95% confidence level): 3.8
sourness intensity, change versus reference sample ([5]; 50 ppm in 5% sucrose / 0.05% citric acid, pH value also unchanged): Without changing
